Reference: paper PMC9134006 (RSC Advances, 2021)

Columns and labels:
[1] = ref 29b,37; cited from earlier work
[2] = target: hAChE (human AChE) (Homo sapiens, UniProt P22303); test: Inhibition of hAChE; format: biochemical; settings: for remaining activity at 10 µM: read-out: hAChE RA (residual activity) at 10 μM; for remaining activity at 100 µM: read-out: hAChE RA (residual activity) at 100 μM
[3] = target: hBChE (human BChE) (Homo sapiens, UniProt P06276); test: Inhibition of hBChE; format: biochemical; settings: for remaining activity at 10 µM: read-out: hBChE RA (residual activity) at 10 μM; for remaining activity at 100 µM: read-out: hBChE RA (residual activity) at 100 μM
[4] = target: T1, hMAO-B (human MAO-B) (Homo sapiens, UniProt P27338); test: Inhibition of hMAO-B; format: biochemical; settings: for remaining activity at 10 µM: read-out: hMAO-B RA (residual activity) at 10 μM; for remaining activity at 100 µM: read-out: hMAO-B RA (residual activity) at 100 μM; for inhibition of hMAO-B (in words): versus hAChE, hBChE, hMAO-A
T1 sequence (P27338 1-520): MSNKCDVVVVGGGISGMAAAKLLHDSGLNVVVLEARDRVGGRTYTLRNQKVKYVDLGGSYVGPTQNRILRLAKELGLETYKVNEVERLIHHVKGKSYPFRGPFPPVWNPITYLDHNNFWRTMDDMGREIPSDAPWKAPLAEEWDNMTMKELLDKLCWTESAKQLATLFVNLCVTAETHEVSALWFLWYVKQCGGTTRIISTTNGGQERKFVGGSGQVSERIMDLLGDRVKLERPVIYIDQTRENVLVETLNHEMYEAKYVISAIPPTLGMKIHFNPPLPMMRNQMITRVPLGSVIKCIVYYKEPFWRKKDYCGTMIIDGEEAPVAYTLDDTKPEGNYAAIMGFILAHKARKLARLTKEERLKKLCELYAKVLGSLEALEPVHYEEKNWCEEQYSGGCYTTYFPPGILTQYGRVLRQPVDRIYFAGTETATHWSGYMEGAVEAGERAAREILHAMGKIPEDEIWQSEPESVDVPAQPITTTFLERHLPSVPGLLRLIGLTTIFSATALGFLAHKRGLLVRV

[5] = target: T2, hMAO-A (human MAO-A) (Homo sapiens, UniProt P21397); test: Inhibition of hMAO-A; settings: for remaining activity at 10 µM: read-out: hMAO-A RA (residual activity) at 10 μM; for remaining activity at 100 µM: read-out: hMAO-A RA (residual activity) at 100 μM
T2 sequence (P21397 1-527): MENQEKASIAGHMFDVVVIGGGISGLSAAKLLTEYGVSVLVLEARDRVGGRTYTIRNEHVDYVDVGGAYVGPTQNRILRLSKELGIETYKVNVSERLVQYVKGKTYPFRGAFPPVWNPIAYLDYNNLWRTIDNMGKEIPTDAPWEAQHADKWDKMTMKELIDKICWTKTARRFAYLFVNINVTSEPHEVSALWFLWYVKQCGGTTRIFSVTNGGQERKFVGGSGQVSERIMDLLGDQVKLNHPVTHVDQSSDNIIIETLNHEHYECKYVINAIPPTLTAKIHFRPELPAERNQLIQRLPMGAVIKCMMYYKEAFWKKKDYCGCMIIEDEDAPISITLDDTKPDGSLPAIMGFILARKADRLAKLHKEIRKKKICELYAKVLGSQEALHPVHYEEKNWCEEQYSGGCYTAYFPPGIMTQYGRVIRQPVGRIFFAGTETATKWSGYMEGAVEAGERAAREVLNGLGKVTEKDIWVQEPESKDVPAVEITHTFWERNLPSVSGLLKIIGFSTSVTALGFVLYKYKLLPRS

hBChE (human BChE), sequence (P06276 29-602): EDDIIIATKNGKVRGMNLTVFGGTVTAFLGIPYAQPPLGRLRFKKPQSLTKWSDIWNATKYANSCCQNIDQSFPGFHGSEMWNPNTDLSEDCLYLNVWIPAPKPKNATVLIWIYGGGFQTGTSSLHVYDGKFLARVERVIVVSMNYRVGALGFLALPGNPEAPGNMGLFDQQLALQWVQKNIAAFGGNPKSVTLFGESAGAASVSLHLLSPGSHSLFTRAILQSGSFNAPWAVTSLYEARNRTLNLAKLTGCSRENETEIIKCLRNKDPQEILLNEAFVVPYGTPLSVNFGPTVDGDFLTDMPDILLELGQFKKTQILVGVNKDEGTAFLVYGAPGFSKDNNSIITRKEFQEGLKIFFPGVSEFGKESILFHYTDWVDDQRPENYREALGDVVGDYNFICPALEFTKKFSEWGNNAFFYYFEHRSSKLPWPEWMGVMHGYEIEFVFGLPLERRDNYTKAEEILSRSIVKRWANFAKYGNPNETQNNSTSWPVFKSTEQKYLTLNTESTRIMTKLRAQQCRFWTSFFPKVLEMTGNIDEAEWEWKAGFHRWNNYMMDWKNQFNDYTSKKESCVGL
hAChE (human AChE), sequence (P22303 32-614): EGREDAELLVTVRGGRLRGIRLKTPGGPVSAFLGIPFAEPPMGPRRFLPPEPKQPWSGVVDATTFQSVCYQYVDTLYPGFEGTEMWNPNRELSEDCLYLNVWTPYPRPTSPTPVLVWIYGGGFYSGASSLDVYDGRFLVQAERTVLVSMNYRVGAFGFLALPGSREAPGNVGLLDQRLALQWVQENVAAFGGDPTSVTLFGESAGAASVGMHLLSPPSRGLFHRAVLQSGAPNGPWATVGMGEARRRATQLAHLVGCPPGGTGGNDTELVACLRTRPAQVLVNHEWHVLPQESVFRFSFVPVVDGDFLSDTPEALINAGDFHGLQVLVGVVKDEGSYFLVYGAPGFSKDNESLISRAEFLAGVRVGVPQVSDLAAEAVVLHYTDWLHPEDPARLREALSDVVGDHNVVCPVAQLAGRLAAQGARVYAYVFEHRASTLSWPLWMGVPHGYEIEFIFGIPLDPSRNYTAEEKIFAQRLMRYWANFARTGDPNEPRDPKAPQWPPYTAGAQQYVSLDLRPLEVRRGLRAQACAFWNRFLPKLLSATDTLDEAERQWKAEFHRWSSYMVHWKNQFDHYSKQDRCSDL

Row | Compound | anti-inflammatory activity [1] [%] | remaining activity at 10 µM [2] [%] | remaining activity at 100 µM [2] [%] | remaining activity at 10 µM [3] [%] | remaining activity at 100 µM [3] [%] | IC50 [4] [µM] | remaining activity at 10 µM [4] [%] | remaining activity at 100 µM [4] [%] | inhibition of hMAO-B (in words) [4] | remaining activity at 10 µM [5] [%] | remaining activity at 100 µM [5] [%]
1 | COc1ccc2c(c1)c(CC(=O)O)c(C)n2C(=O)c1ccc(Cl)cc1 [Indomethacin, reference compound] | 84.2 | – | – | – | – | – | – | – | – | – | –
2 | CC(=O)c1ccc(-c2cnn3c(C(F)(F)F)cc(=O)[nH]c23)cc1 [Compound 5i, 3-(4-Acetylphenyl)-7-(trifluoromethyl)pyrazolo[1,5-a]pyrimidin-5(4H)-one] | – | 90 | 91 | 91 | 99 | 26.2 | 75 | 21 | selectively inhibit hMAO-B in the micromolar range | 100 | 98
3 | FC(F)(F)c1cc(-c2ccc(Br)cc2)nc2c(-c3ccccc3)cnn12 [Compound 11h, 5-(4-Bromophenyl)-3-phenyl-7-(trifluoromethyl)pyrazolo[1,5-a]pyrimidine] | 83.4 | – | – | – | – | – | – | – | – | – | –
4 | O=c1cc(C(F)(F)F)n2ncc(-c3ccc4c(c3)OCCO4)c2[nH]1 [Compound 5h, 3-(2,3-Dihydrobenzo[b][1,4]dioxin-6-yl)-7-(trifluoromethyl)pyrazolo[1,5-a]pyrimidin-5(4H)-one] | – | 91 | 86 | 94 | 95 | 5.36 | 36 | 8 | selectively inhibit hMAO-B in the micromolar range | 110 | 95
5 | COc1cccc(-c2cnn3c(C(F)(F)F)cc(=O)[nH]c23)c1 [Compound 5f, 3-(3-Methoxyphenyl)-7-(trifluoromethyl)pyrazolo[1,5-a]pyrimidin-5(4H)-one] | – | 91 | 88 | 97 | 95 | 101 | 80 | 40 | selectively inhibit hMAO-B in the micromolar range | 92 | 97
6 | COc1ccc(-c2cnn3c(C(F)(F)F)cc(=O)[nH]c23)cc1 [Compound 5a, 3-(4-Methoxyphenyl)-7-(trifluoromethyl)pyrazolo[1,5-a]pyrimidin-5(4H)-one] | – | 93 | 86 | 90 | 103 | 35 | 73 | 26 | selectively inhibit hMAO-B in the micromolar range | 95 | 99
